Target: eIF3e (Homo sapiens, UniProt P60228)
Experiment: isothermal dose-response fingerprint CETSA, western blot
Format: biochemical
Conditions: MCF7-SIX1 lysate, 10 min at room temperature with compound, heated at 53 °C for 3 min; pH 7.5 Tris, 100 mM NaCl, 1 mM DTT

eIF3e, sequence (P60228 2-445): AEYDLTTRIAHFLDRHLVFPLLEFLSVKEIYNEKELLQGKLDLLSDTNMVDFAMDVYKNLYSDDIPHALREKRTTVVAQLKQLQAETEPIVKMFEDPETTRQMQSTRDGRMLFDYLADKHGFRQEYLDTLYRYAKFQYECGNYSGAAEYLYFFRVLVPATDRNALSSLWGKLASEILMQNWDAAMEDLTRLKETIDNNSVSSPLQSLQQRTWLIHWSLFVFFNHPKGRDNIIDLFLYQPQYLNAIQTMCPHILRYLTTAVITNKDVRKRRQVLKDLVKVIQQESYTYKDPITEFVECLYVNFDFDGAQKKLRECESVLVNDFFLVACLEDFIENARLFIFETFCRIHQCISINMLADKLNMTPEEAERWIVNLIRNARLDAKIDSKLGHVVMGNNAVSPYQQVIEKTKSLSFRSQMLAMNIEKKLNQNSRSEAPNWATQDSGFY

COc1ccc(NC(=O)c2cccc(-n3cccc3)c2)cc1S(=O)(=O)N1CCOCC1 [compound 8430, NCGC00378430]
EC50: 13.6 µM

From paper PMC12822916 (Cell reports, 2025)
